The test system of this experiment is MX-1 breast xenograft, intrarenal, nude mice, tumor weight. Nature of the experiment: NCI In Vivo Anticancer Drug Screen. Data for tumor model Human Mammary Carcinoma MX-1 Xenograft (intrarenal inoculation) in NU/NU BALB/C (nude) mice. The conditions noted are these: endpoint: mean tumor weight change, higher = larger tumour. In short, it runs like this:
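Efficacy in vivo: tumor measurement or survival of treated animals divided by that of vehicle-dosed controls.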

[1] abbreviates: dose: 150.0 mg/kg/injection, schedule: Q04DX003 (ip), vehicle: saline with Tween-80.
Setting [2] is: dose: 300.0 mg/kg/injection, schedule: Q04DX003 (ip), vehicle: saline with Tween-80.
[3] abbreviates: dose: 600.0 mg/kg/injection, schedule: Q04DX003 (ip), vehicle: saline with Tween-80.
Setting [4] is: dose: 1200.0 mg/kg/injection, schedule: Q04DX003 (ip), vehicle: saline with Tween-80.

The structures appear in SMILES notation. Values joined by “and” are separate entries in the source; they are usually repeats but may differ in a detail not shown here. Identical values can stand only once. Inconclusive results are not listed.

With `O=C1CSC(c2cccs2)N1c1nncs1` (centres undefined), the T/C runs as follows: (dose: 100.0 mg/kg/injection, schedule: Q04DX003 (ip), vehicle: Klucel (hydroxypropylcellulose) (HPC)) 92 % of control; (dose: 200.0 mg/kg/injection, schedule: Q04DX003 (ip), vehicle: Klucel (hydroxypropylcellulose) (HPC)) 102 % of control; (dose: 400.0 mg/kg/injection, schedule: Q04DX003 (ip), vehicle: Klucel (hydroxypropylcellulose) (HPC)) 57 % of control; (dose: 800.0 mg/kg/injection, schedule: Q04DX003 (ip), vehicle: Klucel (hydroxypropylcellulose) (HPC)) 49 % of control.

Turning to `C#CCNC1=C(C)C(=O)C2=C(C1=O)[C@H](COC(N)=O)[C@]1(OC)[C@@H]3N[C@@H]3CN21`, the T/C (dose: 1.85 mg/kg/injection, schedule: Q04DX003 (ip), vehicle: distilled water + Tween-80) is 48 % of control; the T/C (dose: 1.88 mg/kg/injection, schedule: Q04DX003 (ip), vehicle: distilled water + Tween-80) is 97 % of control; the T/C (dose: 3.75 mg/kg/injection, schedule: Q04DX003 (ip), vehicle: distilled water + Tween-80) was 49 % of control and 55 % of control.

With `COc1cc(O)c2c(O)c3c(c4c2c1[C@]1(C4)C(C)=CCCC1(C)C)[C@H](O)[C@@]1(O)CC(=O)C(C(N)=O)=C(O)[C@@]1(O)C3=O`, where the note is “dose: 75.0 mg/kg/injection, schedule: Q04DX003 (ip), vehicle: saline with Tween-80”, the T/C was 106 % of control.

Turning to `COc1cc(C2CC(C)(O)Oc3cc4c(cc32)OCO4)cc(OC)c1OC` (centres undefined), the T/C (dose: 25.0 mg/kg/injection, schedule: Q04DX003 (ip), vehicle: saline with Tween-80) is 86 % of control; the T/C (dose: 50.0 mg/kg/injection, schedule: Q04DX003 (ip), vehicle: saline with Tween-80) is 75 % of control; the T/C (dose: 100.0 mg/kg/injection, schedule: Q04DX003 (ip), vehicle: saline with Tween-80) is 73 % of control and 74 % of control; the T/C (dose: 200.0 mg/kg/injection, schedule: Q04DX003 (ip), vehicle: saline with Tween-80) is 46 % of control.

Regarding `CCN(CC)CCOCCO`, the T/C (dose: 600.0 mg/kg/injection, schedule: Q04DX003 (sc), vehicle: saline) is 121 % of control.

For `O=c1[nH]c(=O)n(C2CC(O)C(CO)O2)cc1F` (centres undefined), the T/C was 47 % of control and 68 % of control (dose: 25.0 mg/kg/injection, schedule: Q01DX010 (sc), vehicle: water); 15 % of control and 18 % of control (dose: 100.0 mg/kg/injection, schedule: Q01DX010 (sc), vehicle: water).

Consider `O=C1c2c(O)cccc2-c2nn(CCNCCO)c3ccc(NCCNCCO)c1c23`, for which the T/C is, setting by setting: (dose: 2.75 mg/kg/injection, schedule: Q04DX003 (ip), vehicle: water) 3 % of control; (dose: 5.5 mg/kg/injection, schedule: Q04DX003 (ip), vehicle: water) -100 % of control; (dose: 11.0 mg/kg/injection, schedule: Q04DX003 (ip), vehicle: water) -19 % of control.

Consider `CC(=O)OCC1OC(n2cc(CBr)nn2)C(OC(C)=O)C(OC(C)=O)C1OC(C)=O` (centres undefined), for which the T/C was 92 % of control (dose: 25.0 mg/kg/injection, schedule: Q01DX010 (sc), vehicle: saline with Tween-80); 94 % of control (dose: 50.0 mg/kg/injection, schedule: Q01DX010 (sc), vehicle: saline with Tween-80); 95 % of control (dose: 100.0 mg/kg/injection, schedule: Q01DX010 (sc), vehicle: saline with Tween-80); 87 % of control (dose: 200.0 mg/kg/injection, schedule: Q01DX010 (sc), vehicle: saline with Tween-80).

For `COc1cc2c(oc(=O)c3cc(C)cc(OC)c32)c2c(C3OC(C)C(O)C(C)(O)C3O)ccc(O)c12` (centres undefined), the T/C (dose: 12.5 mg/kg/injection, schedule: Q04DX003 (ip), vehicle: DMSO) is 97 % of control and 106 % of control; the T/C (dose: 50.0 mg/kg/injection, schedule: Q04DX003 (ip), vehicle: DMSO) is 48 % of control and 63 % of control.

Consider `CO[C@H](/C(C)=C/C=C/C(C)=C/c1coc(C)n1)[C@H](C)[C@H]1C[C@@H](O)[C@@]2(C)O[C@H]2/C=C/[C@@H](C)[C@@H]2C[C@@H](CC(=O)O2)C[C@H]2O[C@@H]2C(=O)O1`, for which the T/C is, setting by setting: (dose: 0.13 mg/kg/injection, schedule: Q04DX003 (ip), vehicle: other) 62 % of control; (dose: 0.2 mg/kg/injection, schedule: Q04DX003 (ip), vehicle: other) 67 % of control; (dose: 0.25 mg/kg/injection, schedule: Q04DX003 (ip), vehicle: Klucel (hydroxypropylcellulose) (HPC)) 10 % of control; (dose: 0.25 mg/kg/injection, schedule: Q04DX003 (sc), vehicle: Klucel (hydroxypropylcellulose) (HPC)) 46 % of control and 55 % of control and 63 % of control; (dose: 0.3 mg/kg/injection, schedule: Q04DX003 (ip), vehicle: other) 55 % of control; (dose: 0.44 mg/kg/injection, schedule: Q04DX003 (ip), vehicle: other) 27 % of control. Besides, the T/C by setting is: (dose: 0.5 mg/kg/injection, schedule: Q04DX003 (ip), vehicle: Klucel (hydroxypropylcellulose) (HPC)) 7 % of control; (dose: 0.5 mg/kg/injection, schedule: Q04DX003 (sc), vehicle: Klucel (hydroxypropylcellulose) (HPC)) 35 % of control and 36 % of control and 41 % of control; (dose: 1.0 mg/kg/injection, schedule: Q04DX003 (ip), vehicle: Klucel (hydroxypropylcellulose) (HPC)) 5 % of control; (dose: 1.0 mg/kg/injection, schedule: Q04DX003 (sc), vehicle: Klucel (hydroxypropylcellulose) (HPC)) 4 % of control and 19 % of control.

Consider `CC1=C(/C=C/C(C)=C/C=C/C(C)=C/C=O)C(C)(C)CCC1`, for which the T/C runs as follows: (dose: 150.0 mg/kg/injection, schedule: Q04DX003 (sc), vehicle: saline with Tween-80) 84 % of control; (dose: 300.0 mg/kg/injection, schedule: Q04DX003 (sc), vehicle: saline with Tween-80) 39 % of control; (dose: 600.0 mg/kg/injection, schedule: Q04DX003 (sc), vehicle: saline with Tween-80) 51 % of control; (dose: 1200.0 mg/kg/injection, schedule: Q04DX003 (sc), vehicle: saline with Tween-80) 34 % of control.

`Cc1cc(N(CCOS(C)(=O)=O)CCOS(C)(=O)=O)ccc1C=Nc1ccc(-c2nc(Cc3ccccc3)sc2C)cc1`: the T/C runs as follows: (dose: 50.0 mg/kg/injection, schedule: Q01DX010 (sc), vehicle: Klucel (hydroxypropylcellulose) (HPC)) -72 % of control; (dose: 100.0 mg/kg/injection, schedule: Q01DX010 (sc), vehicle: Klucel (hydroxypropylcellulose) (HPC)) -60 % of control; (dose: 200.0 mg/kg/injection, schedule: Q01DX010 (sc), vehicle: Klucel (hydroxypropylcellulose) (HPC)) -90 % of control; (dose: 400.0 mg/kg/injection, schedule: Q01DX010 (sc), vehicle: Klucel (hydroxypropylcellulose) (HPC)) -86 % of control.

On to `CCOC(=O)Nc1cc2c(c(N)n1)N=C(c1ccccc1)CO2`, for which the T/C under setting [1] is 73 % of control, the T/C under setting [2] was 80 % of control, the T/C under setting [3] is 51 % of control and the T/C under setting [4] is 68 % of control.

Take `COc1ccc(CC2C(=O)NC(C)C(=O)N(C)C3Cc4ccc(cc4)Oc4cc(ccc4O)CC(C(=O)NC(C)C(=O)NC(C)C(=O)N2C)N(C)C3=O)cc1` (centres undefined): the T/C reads like this: (dose: 8.0 mg/kg/injection, schedule: Q04DX003 (sc), vehicle: saline with Tween-80) 27 % of control; (dose: 16.0 mg/kg/injection, schedule: Q04DX003 (sc), vehicle: saline with Tween-80) 25 % of control; (dose: 32.0 mg/kg/injection, schedule: Q04DX003 (sc), vehicle: saline with Tween-80) 3 % of control.

Consider `CC(NNC(=S)N(C)C1CCCCC1)c1cc2ccccc2cn1` (centres undefined), for which the T/C (dose: 150.0 mg/kg/injection, schedule: Q04DX003 (ip), vehicle: saline) was 80 % of control.

Take `CC(C)(C)c1ccc(C(=O)N2CCOC23CCCCC3)cc1`: the T/C is, setting by setting: under setting [1], 69 % of control and 87 % of control; under setting [2], 96 % of control and 112 % of control; under setting [3], 80 % of control and 88 % of control; under setting [4], 95 % of control and 106 % of control.

Consider `COc1cc(NCc2ccc3nc(N)nc(N)c3c2C)cc(OC)c1OC`, for which the T/C (dose: 15.0 mg/kg/injection, schedule: Q04DX003 (ip), vehicle: Klucel (hydroxypropylcellulose) (HPC)) is 96 % of control and 101 % of control; the T/C (dose: 30.0 mg/kg/injection, schedule: Q04DX003 (ip), vehicle: Klucel (hydroxypropylcellulose) (HPC)) is 81 % of control and 95 % of control; the T/C (dose: 120.0 mg/kg/injection, schedule: Q04DX003 (ip), vehicle: Klucel (hydroxypropylcellulose) (HPC)) is 56 % of control and 71 % of control.

On to `N#CCS(=O)(=O)c1cccc[n+]1[O-]`, for which the T/C runs as follows: under setting [1], 77 % of control; under setting [2], 67 % of control.

In the case of `COc1cc(C2=NCCc3cc4c(cc32)OCO4)cc(OC)c1OC`, the T/C (dose: 75.0 mg/kg/injection, schedule: Q04DX003 (ip), vehicle: saline + alcohol) is 116 % of control and the T/C (dose: 150.0 mg/kg/injection, schedule: Q04DX003 (ip), vehicle: saline + alcohol) is 99 % of control.

`ClCCCN1CCCCC1CCl` (centres undefined): the T/C is, setting by setting: (dose: 6.25 mg/kg/injection, schedule: Q04DX003 (sc), vehicle: saline) 53 % of control; (dose: 12.5 mg/kg/injection, schedule: Q04DX003 (sc), vehicle: saline) 3 % of control; (dose: 25.0 mg/kg/injection, schedule: Q04DX003 (sc), vehicle: saline) -13 % of control.

The values are drawn from PubChem BioAssay AID298 (DTP/NCI, 2004).
